Results on 10 compounds are retold here after ChEMBL document CHEMBL1201862, “PubChem BioAssay data set” (2004).

“And” between values parts separate entries of the source, which are not always exact repeats. Equal entries are not always repeated.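 Protocol summary: plate cells (96-well), add compound at 5 concentrations, incubate 48 h, interpolate endpoints linearly. Abbreviation: GI50, concentration required for 50% inhibition of growth.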 The source made the active and inactive calls. Rule as the data show it: active = GI50 up to about 1.1 µM and inactive = higher.

Common to all, as to assay: NCI anticancer screen, dose series, 48 h
For test [1], the system named is A549.
Test [2] relates to CAKI-1.
The subject of test [3] is CCRF-CEM.
In test [4] the test system is COLO 205.
For test [5], the system named is DU-145.
In test [6] the test system is HOP-92.
In test [7] the test system is IGROV-1.
The subject of test [8] is K562.
The subject of test [9] is M14.
In test [10] the test system is MDA-MB-231.
Test [11] relates to MOLT-4.
Test [12] concerns NCI-H226.
For test [13], the system named is NCI-H460.
Test [14] relates to OVCAR-3.
Test [15] deals with PC-3.
The test system of test [16] is RXF 393.
The subject of test [17] is SF-268.
Test [18] has as its system SK-MEL-28.
In test [19] the test system is SNB-19.
Test [20] has as its system SR.

As for `C=CC[C@@]1(OC(C)=O)C(=O)C(=O)OC1C1COC(C)(C)O1` (stereo not given in full), the GI50 in test [1] was 24.1 µM (inactive); in [2], 2.08 µM (inactive); in [3] it was 6.04 µM (inactive); in test [4], 12.9 µM (inactive); in test [5], 24.2 µM (inactive); in test [6], 14.6 µM (inactive). Moreover, the GI50 is 18.6 µM (inactive) in test [7]; 15.3 µM (inactive) in test [8]; 15.7 µM (inactive) in [9]; 15.8 µM (inactive) in test [10]; 14.3 µM (inactive) in test [11]; 35.3 µM (inactive) in test [12]. Further, the GI50 in test [13] is 17.9 µM (inactive); in [14], 17.1 µM (inactive); in test [15], 20.4 µM (inactive); in test [16], 16.3 µM (inactive); in [17] it was 19.5 µM (inactive); in test [18], 18.8 µM (inactive). In addition, the GI50 in test [19] is 70.5 µM (inactive); in [20], 15.2 µM (inactive).
Turning to `O=C(CCCCCCCCC(=O)NN1C(=O)/C(=C\c2ccc(O)c(O)c2)SC1c1ccc(Cl)cc1)NN1C(=O)/C(=C\c2ccc(O)c(O)c2)SC1c1ccc(Cl)cc1` (stereo not given), the GI50 was 21.3 µM (inactive) in test [1]; 9.12 µM (inactive) in [2]; < 0.01 µM (active) in test [3]; 24.8 µM (inactive) in test [4]; 19.9 µM (inactive) in test [5]; 11.5 µM (inactive) in test [6]. Further, the GI50 was 2.83 µM (inactive) in test [7]; 21.6 µM (inactive) in [8]; 20.7 µM (inactive) in [9]; 35.6 µM (inactive) in test [10]; 1.82 µM (inactive) in test [11]; 59.3 µM (inactive) in [12]. The GI50 in test [13] was 30.6 µM (inactive); in test [14], 5.45 µM (inactive); in [15] it was 20.6 µM (inactive); in test [16] it was 15.8 µM (inactive); in [17], 8.67 µM (inactive); in [18], > 54.7 µM (inactive). Besides, the results for the GI50 in test [19] and in test [20] were 16.9 µM (inactive) and 2.08 µM (inactive), respectively.
In the case of `COc1ccc(SCc2cc(OC)c(OC)c(OC)c2)cc1OC`, the GI50 in test [1] was 43.8 µM (inactive); in test [2], 44.5 µM (inactive); in [3], 64.9 µM (inactive); in [4], 50.4 µM (inactive); in test [5] it was > 100 µM (inactive); in test [6], 25.6 µM (inactive). The GI50 in test [7] was 80.4 µM (inactive); in test [8] it was 42.9 µM (inactive); in [9], 64.1 µM (inactive); in test [10], 57 µM (inactive); in test [11], 46.2 µM (inactive); in [12], 51.6 µM (inactive). Further, the GI50 in test [13] was > 79.6 µM (inactive); in test [14] it was > 56 µM (inactive); in test [15], 31.3 µM (inactive); in test [16], > 95.5 µM (inactive); in test [17], > 100 µM (inactive); in test [18], > 73.8 µM (inactive). Moreover, the GI50 is > 81.1 µM (inactive) in [19] and 53.8 µM (inactive) in test [20].
In the case of `CC(C)(C)C(=O)C(Cc1ccccc1)C(=O)C(C)(C)C`, the GI50 is > 100 µM (inactive) in test [1]; > 100 µM (inactive) in test [2]; 39.6 µM (inactive) in test [3]; > 100 µM (inactive) in test [4]; > 100 µM (inactive) in test [5]; 29.6 µM (inactive) in test [6]. The GI50 in test [7] was > 100 µM (inactive); in [8], 55 µM (inactive); in [9], > 100 µM (inactive); in test [10], > 100 µM (inactive); in test [11], 50.7 µM (inactive); in test [12], > 100 µM (inactive). The GI50 in test [13] is > 100 µM (inactive); in test [14] it was 55 µM (inactive); in test [15], 46.7 µM (inactive); in test [16], 98.6 µM (inactive); in test [17], > 100 µM (inactive); in test [18], > 100 µM (inactive). For the same compound, the GI50 is > 100 µM (inactive) in [19] and 51.3 µM (inactive) in [20].
For `CCN(CC)CC1CCCCN1CC(=O)N1c2ccccc2NC(=O)c2ccccc21` (stereo not given), the GI50 in test [1], in [2], in test [3], in test [4], in test [5] and in test [6] was > 100 µM (inactive) in each case. The GI50 is > 100 µM (inactive) in test [7]; 79.3 µM (inactive) in [8]; > 100 µM (inactive) in [9]; > 100 µM (inactive) in [10]; > 100 µM (inactive) in [11]; > 100 µM (inactive) in [12]. The GI50 in test [13], in test [14], in test [15], in test [16], in test [17] and in test [18] was > 100 µM (inactive) each time. Further, the GI50 in test [19] and in test [20] was > 100 µM (inactive) in each case.
Take `Cc1ccc(S(=O)(=O)N/N=C2\CCCCCCCCCCC2CN(C)C)cc1` (stereo not given): the GI50 was 19.3 µM (inactive) in test [1]; 26.7 µM (inactive) in [2]; 15.7 µM (inactive) in test [3]; 17.4 µM (inactive) in [4]; 18.5 µM (inactive) in test [5]; 10.3 µM (inactive) in [6]. For the same compound, the GI50 is 16 µM (inactive) in test [7]; 13.2 µM (inactive) in [8]; 17.1 µM (inactive) in test [9]; 18.9 µM (inactive) in test [10]; 26.7 µM (inactive) in test [11]; 15.7 µM (inactive) in test [12]. In addition, the GI50 in [13] was 12.4 µM (inactive); in test [14], 17.5 µM (inactive); in test [15] it was 15.3 µM (inactive); in [16], 11.6 µM (inactive); in [17] it was 21.3 µM (inactive); in test [18], 14.8 µM (inactive). Moreover, the GI50 was 15.5 µM (inactive) in test [19] and 16.9 µM (inactive) in test [20].
On to `CCCCCCCCC/C=C1\CCC(CN2CCOCC2)C1=O` (stereo not given), for which the GI50 was 15 µM (inactive) in test [1]; 4.6 µM (inactive) in test [2]; 1.8 µM (inactive) in test [3]; 3.73 µM (inactive) in [4]; 4.65 µM (inactive) in test [5]; 3.38 µM (inactive) in test [6]. The GI50 is 4.83 µM (inactive) in test [7]; 2.45 µM (inactive) in test [8]; 3.23 µM (inactive) in test [9]; 2.96 µM (inactive) in test [10]; 1.57 µM (inactive) in [11]; 5.61 µM (inactive) in test [12]. Moreover, the GI50 in [13] was 7.26 µM (inactive); in [14], 8.55 µM (inactive); in test [15], 1.79 µM (inactive); in test [16] it was 2.31 µM (inactive); in [17] it was 3.94 µM (inactive); in test [18] it was 3.05 µM (inactive). For the same compound, the GI50 in test [19] was 9.04 µM (inactive); in test [20] it was 2.38 µM (inactive).
Consider `C=CCN1C(=O)/C(=C/c2ccccc2)NC1=S`, for which the GI50 was 88.9 µM (inactive) in test [1]; > 100 µM (inactive) in [2]; > 100 µM (inactive) in test [3]; > 100 µM (inactive) in test [4]; > 100 µM (inactive) in test [5]; > 100 µM (inactive) in [6]. In addition, the GI50 is > 100 µM (inactive) in [7]; 84.5 µM (inactive) in test [8]; > 100 µM (inactive) in [9]; > 100 µM (inactive) in [10]; 61.7 µM (inactive) in test [11]; 15.6 µM (inactive) in test [12]. In addition, the GI50 in test [13], in test [14], in [15], in test [16], in [17] and in [18] was > 100 µM (inactive) in each case. The GI50 in [19] and in test [20] was > 100 µM (inactive) each time.
For the compound `COc1ccc(-c2[nH]c(=O)n(C3OC(CO)C(O)C(O)C3O)c(=O)c2C#N)cc1` (stereo not given), the GI50 in test [1], in test [2], in test [3], in [4], in test [5] and in [6] was > 100 µM (inactive) throughout. The GI50 is > 100 µM (inactive) and 86.1 µM (inactive) in test [7]; > 100 µM (inactive) in test [8]; > 100 µM (inactive) in test [9]; > 100 µM (inactive) and 81.5 µM (inactive) in test [10]; > 100 µM (inactive) in test [11]; > 100 µM (inactive) in [12]. The GI50 in test [13], in test [14], in test [15], in [16], in [17] and in test [18] was > 100 µM (inactive) each time. The GI50 in test [19] and in test [20] was > 100 µM (inactive) throughout.
Take `C=CCN1C(=O)CNC1=S`: the GI50 is > 100 µM (inactive) in [1]; > 100 µM (inactive) in [2]; 5.35 µM (inactive) in [3]; > 100 µM (inactive) in [4]; > 100 µM (inactive) in [5]; > 100 µM (inactive) in test [6]. Moreover, the GI50 was > 100 µM (inactive) in test [7]; 40.6 µM (inactive) in [8]; > 100 µM (inactive) in [9]; > 100 µM (inactive) in [10]; > 100 µM (inactive) in [11]; > 100 µM (inactive) in [12]. The GI50 in [13], in [14], in [15], in test [16], in test [17] and in [18] was > 100 µM (inactive) throughout. For the same compound, the GI50 in test [19] and in test [20] was > 100 µM (inactive) each time.
